Details: Liquid, Vibrating tube method

CCCCn1cc[n+](C)c1C.O=S(=O)([N-]S(=O)(=O)C(F)(F)F)C(F)(F)F
mass density [kg/m3]
Details | 100 kPa | 1000 kPa | 10000 kPa | 20000 kPa | 40000 kPa | 60000 kPa | 80000 kPa | 100000 kPa | 120000 kPa
278.15 K | 1439.8 | 1440 | 1445.9 | 1452.2 | 1464 | 1475 | 1485.2 | 1494.7 | 1503.9
298.15 K | 1420.9 | 1421.2 | 1427.5 | 1434.1 | 1446.5 | 1458 | 1468.8 | 1479 | 1488.7
313.15 K | 1407.1 | 1407.5 | 1414 | 1420.9 | 1433.9 | 1445.8 | 1457 | 1467.3 | 1477.2
333.15 K | 1388.5 | 1389 | 1396 | 1403.4 | 1417.1 | 1429.7 | 1441.4 | 1452.2 | 1462.6
348.15 K | 1374.7 | 1375.3 | 1382.7 | 1390.4 | 1404.7 | 1417.8 | 1429.9 | 1441.1 | 1451.7
373.15 K | 1351.1 | 1352.3 | 1360.4 | 1368.7 | 1384 | 1397.9 | 1410.6 | 1422.5 | 1433.6
398.15 K | 1328.4 | 1329.7 | 1338.4 | 1347.4 | 1363.8 | 1378.5 | 1392.1 | 1404.6 | 1416

From the NIST ThermoML archive (doi:10.1016/j.jct.2014.09.014)
